Assay results as given in ChEMBL document CHEMBL5543147, “Discovery and Characterization of a Novel Cereblon-Recruiting PRC1 Bridged PROTAC Degrader” (J Med Chem, 2024).
Calls of active or inactive are those of the source. The calls are words filed in the database; no cut-off is given here.

Experiments:
[1] = target: T1, Protein cereblon/Polycomb protein EED (Homo sapiens, UniProt O75530+Q96SW2); experiment: PROTAC activity at CRBN/EED in human PC-3M cells assessed as degradation of EED protein expression at 0.2 to 5 uM incubated for 24 hrs by Western blotting analysis; type: cell-based; conditions: dose 0.2-5 µM
T1 sequence (O75530 2-441 limits assumed): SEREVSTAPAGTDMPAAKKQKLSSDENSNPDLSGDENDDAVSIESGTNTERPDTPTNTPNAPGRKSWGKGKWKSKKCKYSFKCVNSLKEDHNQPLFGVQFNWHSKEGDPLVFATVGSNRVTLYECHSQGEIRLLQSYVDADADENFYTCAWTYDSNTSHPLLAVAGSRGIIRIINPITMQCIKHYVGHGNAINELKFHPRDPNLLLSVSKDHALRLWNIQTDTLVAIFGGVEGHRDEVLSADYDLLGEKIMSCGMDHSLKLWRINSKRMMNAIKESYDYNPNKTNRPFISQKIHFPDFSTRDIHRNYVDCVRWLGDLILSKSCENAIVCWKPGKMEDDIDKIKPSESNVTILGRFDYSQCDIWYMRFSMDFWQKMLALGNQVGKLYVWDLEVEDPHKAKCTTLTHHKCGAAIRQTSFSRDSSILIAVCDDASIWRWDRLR
T1 sequence (Q96SW2 whole entry partner): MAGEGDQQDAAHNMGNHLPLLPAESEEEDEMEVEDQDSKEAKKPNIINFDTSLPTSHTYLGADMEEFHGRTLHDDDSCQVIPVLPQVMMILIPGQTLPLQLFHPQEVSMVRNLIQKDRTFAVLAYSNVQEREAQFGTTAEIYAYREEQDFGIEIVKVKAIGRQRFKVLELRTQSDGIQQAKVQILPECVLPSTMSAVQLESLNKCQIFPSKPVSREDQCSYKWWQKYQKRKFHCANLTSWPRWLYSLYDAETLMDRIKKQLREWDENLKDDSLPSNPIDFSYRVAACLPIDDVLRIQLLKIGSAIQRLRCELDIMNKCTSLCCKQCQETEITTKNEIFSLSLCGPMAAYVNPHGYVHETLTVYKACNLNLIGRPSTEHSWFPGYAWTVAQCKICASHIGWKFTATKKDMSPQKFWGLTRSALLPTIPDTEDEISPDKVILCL

[2] = target: T1, Protein cereblon/Polycomb protein EED; experiment: PROTAC activity at CRBN/EED in human MDA-MB-468 cells assessed as degradation of EED protein expression at 0.2 to 5 uM incubated for 24 hrs by Western blotting analysis; type: cell-based; conditions: dose 0.2-5 µM
[3] = target: T2, Protein cereblon/Polycomb protein SUZ12 (Homo sapiens) (UniProt Q15022+Q96SW2); experiment: PROTAC activity at CRBN/SUZ12 in human MDA-MB-468 cells assessed as degradation of SUZ12 protein expression at 0.2 to 5 uM incubated for 24 hrs by Western blotting analysis; type: cell-based; conditions: dose 0.2-5 µM
T2 sequence (Q15022 whole entry, looked up): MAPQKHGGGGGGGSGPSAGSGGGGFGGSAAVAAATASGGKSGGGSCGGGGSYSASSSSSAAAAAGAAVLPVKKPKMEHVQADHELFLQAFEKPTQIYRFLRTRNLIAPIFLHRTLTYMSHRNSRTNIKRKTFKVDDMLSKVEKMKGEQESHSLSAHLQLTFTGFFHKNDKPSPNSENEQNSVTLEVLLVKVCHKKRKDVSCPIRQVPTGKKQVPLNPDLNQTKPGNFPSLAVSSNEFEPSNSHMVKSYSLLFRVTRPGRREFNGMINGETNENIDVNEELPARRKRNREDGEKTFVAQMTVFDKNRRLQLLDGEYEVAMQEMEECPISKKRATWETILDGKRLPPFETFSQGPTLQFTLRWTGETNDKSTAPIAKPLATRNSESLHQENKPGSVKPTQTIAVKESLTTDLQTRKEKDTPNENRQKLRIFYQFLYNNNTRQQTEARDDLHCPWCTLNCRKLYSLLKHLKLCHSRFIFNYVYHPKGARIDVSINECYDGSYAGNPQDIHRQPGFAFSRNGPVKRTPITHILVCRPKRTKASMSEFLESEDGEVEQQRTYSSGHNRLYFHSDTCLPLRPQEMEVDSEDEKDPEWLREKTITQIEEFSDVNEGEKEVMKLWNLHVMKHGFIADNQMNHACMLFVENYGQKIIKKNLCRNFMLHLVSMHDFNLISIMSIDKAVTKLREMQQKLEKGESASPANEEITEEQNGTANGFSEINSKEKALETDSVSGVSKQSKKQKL
T2 sequence (Q96SW2 whole entry, looked up): as the sequence (Q96SW2 whole entry partner) above

[4] = target: T3, Protein cereblon/Histone-lysine N-methyltransferase EZH2 (Homo sapiens) (UniProt Q15910+Q96SW2); experiment: PROTAC activity at CRBN/EZH2 in human MDA-MB-468 cells assessed as degradation of EZH2 protein expression at 0.2 to 5 uM incubated for 24 hrs by Western blotting analysis; type: cell-based; conditions: dose 0.2-5 µM
T3 sequence (Q15910 whole entry, looked up): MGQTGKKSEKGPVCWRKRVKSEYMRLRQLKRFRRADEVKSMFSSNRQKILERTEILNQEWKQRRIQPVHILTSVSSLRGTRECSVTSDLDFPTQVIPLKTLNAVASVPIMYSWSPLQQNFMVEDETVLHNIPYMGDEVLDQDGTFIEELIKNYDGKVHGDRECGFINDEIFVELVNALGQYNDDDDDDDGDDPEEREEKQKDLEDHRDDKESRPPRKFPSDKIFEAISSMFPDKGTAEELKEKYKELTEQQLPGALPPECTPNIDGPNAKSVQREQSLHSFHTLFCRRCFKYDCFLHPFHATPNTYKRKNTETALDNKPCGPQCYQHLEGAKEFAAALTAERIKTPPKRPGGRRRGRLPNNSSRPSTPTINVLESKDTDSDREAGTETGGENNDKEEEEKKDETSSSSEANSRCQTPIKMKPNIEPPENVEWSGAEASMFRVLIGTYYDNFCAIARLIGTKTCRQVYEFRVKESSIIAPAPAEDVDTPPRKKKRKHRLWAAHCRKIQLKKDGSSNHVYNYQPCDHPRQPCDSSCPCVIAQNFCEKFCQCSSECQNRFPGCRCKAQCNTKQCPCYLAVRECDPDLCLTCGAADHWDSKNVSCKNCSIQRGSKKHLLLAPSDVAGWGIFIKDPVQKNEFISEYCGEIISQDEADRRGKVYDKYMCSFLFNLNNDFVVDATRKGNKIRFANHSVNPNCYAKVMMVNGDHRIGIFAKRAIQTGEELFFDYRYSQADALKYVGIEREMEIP
T3 sequence (Q96SW2 whole entry, looked up): as the sequence (Q96SW2 whole entry partner) above

[5] = system: K562; experiment: Antiproliferative activity against human K562 cells assessed as increase in HoxA mRNA expression at 10 uM incubated for 24 hrs by RT-qPCR analysis; type: functional, cell-based
[6] = target: T3, Protein cereblon/Histone-lysine N-methyltransferase EZH2 (Homo sapiens); experiment: PROTAC activity at CRBN/EZH2 in human PC-3M cells assessed as degradation of EZH2 protein expression at 0.2 to 5 uM incubated for 24 hrs by Western blotting analysis; type: cell-based; conditions: dose 0.2-5 µM
[7] = system: PC-3M; experiment: Induction of PRC1 degradation in human PC-3M cells assessed as reduction of H2AK119ub chromatin mark at 0.2 to 5 uM incubated for 24 hrs by Western blotting analysis; type: cell-based; conditions: dose 0.2-5 µM
[8] = target: T4, Protein cereblon/E3 ubiquitin-protein ligase RING2 (Homo sapiens, UniProt Q96SW2+Q99496); experiment: PROTAC activity at CRBN/RING1B in human MDA-MB-468 cells assessed as degradation of RING1B protein expression at 0.2 to 5 uM incubated for 24 hrs by Western blotting analysis; type: cell-based; conditions: dose 0.2-5 µM
T4 sequence (Q96SW2 whole entry): as the sequence (Q96SW2 whole entry partner) above
T4 sequence (Q99496 2-336 partner limits assumed): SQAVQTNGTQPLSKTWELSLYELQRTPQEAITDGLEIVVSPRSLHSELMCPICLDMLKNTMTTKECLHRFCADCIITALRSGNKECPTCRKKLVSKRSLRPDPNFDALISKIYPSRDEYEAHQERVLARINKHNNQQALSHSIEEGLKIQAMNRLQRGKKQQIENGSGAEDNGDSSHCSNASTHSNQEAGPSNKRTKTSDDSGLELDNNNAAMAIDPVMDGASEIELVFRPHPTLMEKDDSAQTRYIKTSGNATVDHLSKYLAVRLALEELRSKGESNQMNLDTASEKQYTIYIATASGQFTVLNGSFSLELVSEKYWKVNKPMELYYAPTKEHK

[9] = target: von Hippel-Lindau disease tumor suppressor/Polycomb protein EED (Homo sapiens, UniProt O75530+P40337); experiment: PROTAC activity at VHL/EED in human KARPAS-422 cells assessed as degradation of EED protein expression by Western blotting analysis; type: cell-based
Sequence of von Hippel-Lindau disease tumor suppressor/Polycomb protein EED (O75530 whole entry): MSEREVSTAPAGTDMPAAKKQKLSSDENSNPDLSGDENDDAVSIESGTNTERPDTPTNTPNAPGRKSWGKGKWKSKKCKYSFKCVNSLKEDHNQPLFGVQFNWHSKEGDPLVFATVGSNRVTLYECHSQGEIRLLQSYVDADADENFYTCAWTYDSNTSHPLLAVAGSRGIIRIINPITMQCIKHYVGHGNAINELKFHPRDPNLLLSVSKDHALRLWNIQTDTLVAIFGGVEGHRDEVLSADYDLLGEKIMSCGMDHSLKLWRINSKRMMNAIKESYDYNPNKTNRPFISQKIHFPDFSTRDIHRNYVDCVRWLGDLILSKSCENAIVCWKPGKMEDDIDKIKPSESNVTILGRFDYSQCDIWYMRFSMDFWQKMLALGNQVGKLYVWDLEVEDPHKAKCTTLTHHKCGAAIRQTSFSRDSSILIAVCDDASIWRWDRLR
Sequence of von Hippel-Lindau disease tumor suppressor/Polycomb protein EED (P40337 whole entry): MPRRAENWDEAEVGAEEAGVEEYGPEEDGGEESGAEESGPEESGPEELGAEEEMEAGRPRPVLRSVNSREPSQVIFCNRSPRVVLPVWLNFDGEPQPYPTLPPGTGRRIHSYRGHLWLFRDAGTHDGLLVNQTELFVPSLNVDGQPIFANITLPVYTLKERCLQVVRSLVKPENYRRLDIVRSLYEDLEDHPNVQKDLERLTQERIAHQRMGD

[10] = target: T5, von Hippel-Lindau disease tumor suppressor/Polycomb complex protein BMI-1 (Homo sapiens) (UniProt P40337+P35226); experiment: PROTAC activity at […] in human K562 cells assessed as degradation of BMI1 protein expression at 1 to 10 uM incubated for 24 hrs by Western blotting analysis; type: cell-based; conditions: dose 1-10 µM
T5 sequence (P35226 whole entry, looked up): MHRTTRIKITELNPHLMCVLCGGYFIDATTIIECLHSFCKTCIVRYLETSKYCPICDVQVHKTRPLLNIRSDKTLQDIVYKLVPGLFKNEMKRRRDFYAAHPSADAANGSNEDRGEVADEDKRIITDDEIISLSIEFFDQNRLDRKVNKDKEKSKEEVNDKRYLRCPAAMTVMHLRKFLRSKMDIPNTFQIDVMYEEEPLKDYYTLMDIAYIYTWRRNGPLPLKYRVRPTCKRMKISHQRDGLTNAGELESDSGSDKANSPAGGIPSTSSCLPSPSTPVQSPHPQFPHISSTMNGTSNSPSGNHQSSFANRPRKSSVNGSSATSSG
T5 sequence (P40337 whole entry, looked up): as the sequence (P40337 whole entry) above

[11] = system: K562; experiment: Antiproliferative activity against human K562 cells assessed as cell growth inhibition incubated for 7 days by WST-8 assay; type: functional; conditions: time 7.0 day
[12] = system: K562; experiment: Antiproliferative activity against human K562 cells assessed as increase in HoxD mRNA expression at 10 uM incubated for 24 hrs by RT-qPCR analysis; type: functional, cell-based
[13] = system: PC-3M; experiment: Induction of PRC2 degradation in human PC-3M cells assessed as reduction of H3K27me3 chromatin mark at 0.2 to 5 uM incubated for 24 hrs by Western blotting analysis; type: cell-based; conditions: dose 0.2-5 µM
[14] = system: K562; experiment: Induction of PRC2 degradation in human K562 cells assessed as reduction of H3K27me3 chromatin mark at 1 to 10 uM incubated for 24 hrs by Western blotting analysis; type: cell-based; conditions: dose 1-10 µM
[15] = target: von Hippel-Lindau disease tumor suppressor/Histone-lysine N-methyltransferase EZH2 (Homo sapiens, UniProt Q15910+P40337); experiment: PROTAC activity at VHL/EZH2 in human KARPAS-422 cells assessed as degradation of EZH2 protein expression by Western blotting analysis; type: cell-based
Sequence of von Hippel-Lindau disease tumor suppressor/Histone-lysine N-methyltransferase EZH2 (Q15910 whole entry): as the sequence (Q15910 whole entry, looked up) above
Sequence of von Hippel-Lindau disease tumor suppressor/Histone-lysine N-methyltransferase EZH2 (P40337 whole entry): as the sequence (P40337 whole entry) above

[16] = target: T4, Protein cereblon/E3 ubiquitin-protein ligase RING2; experiment: PROTAC activity at CRBN/RING1B in human PC-3M cells assessed as degradation of RING1B protein expression at 0.2 to 5 uM incubated for 24 hrs by Western blotting analysis; type: cell-based; conditions: dose 0.2-5 µM
[17] = target: T4, Protein cereblon/E3 ubiquitin-protein ligase RING2; experiment: PROTAC activity at CRBN/RING1B in human K562 cells assessed as degradation of RING1B protein expression at 1 to 10 uM incubated for 24 hrs by Western blotting analysis; type: cell-based; conditions: dose 1-10 µM
[18] = target: T2, Protein cereblon/Polycomb protein SUZ12 (Homo sapiens); experiment: PROTAC activity at CRBN/SUZ12 in human PC-3M cells assessed as degradation of SUZ12 protein expression at 0.2 to 5 uM incubated for 24 hrs by Western blotting analysis; type: cell-based; conditions: dose 0.2-5 µM
[19] = target: T5, von Hippel-Lindau disease tumor suppressor/Polycomb complex protein BMI-1 (Homo sapiens); experiment: PROTAC activity at […] in human PC-3M cells assessed as degradation of BMI1 protein expression at 0.2 to 5 uM incubated for 24 hrs by Western blotting analysis; type: cell-based; conditions: dose 0.2-5 µM
[20] = target: T5, von Hippel-Lindau disease tumor suppressor/Polycomb complex protein BMI-1 (Homo sapiens); experiment: PROTAC activity at […] in human MDA-MB-468 cells assessed as degradation of BMI1 protein expression at 0.2 to 5 uM incubated for 24 hrs by Western blotting analysis; type: cell-based; conditions: dose 0.2-5 µM
[21] = system: MDA-MB-468; experiment: Induction of PRC2 degradation in human MDA-MB-468 cells assessed as reduction of H3K27me3 chromatin mark at 0.2 to 5 uM incubated for 24 hrs by Western blotting analysis; type: cell-based; conditions: dose 0.2-5 µM
[22] = system: MDA-MB-468; experiment: Induction of PRC1 degradation in human MDA-MB-468 cells assessed as reduction of H2AK119ub chromatin mark at 0.2 to 5 uM incubated for 24 hrs by Western blotting analysis; type: cell-based; conditions: dose 0.2-5 µM

Activity [1]: Active | Activity [2]: Active | Activity [3]: Active | Activity [4]: Active | Activity [6]: Active | Activity [8]: inactive | DC50 [9]: < 120 nM | Activity [10]: inactive | DC50 [15]: < 120 nM | Activity [16]: inactive | Activity [17]: inactive | Activity [18]: Active | Activity [19]: inactive | Activity [20]: inactive
SMILES: Cc1nc(CCC(=O)NCCOc2ccc(OCC(=O)N[C@H](C(=O)N3C[C@H](O)C[C@H]3C(=O)NCc3ccc(-c4scnc4C)cc3)C(C)(C)C)cc2)ccc1-c1cnc(NCc2c(F)ccc3c2CCO3)n2cnnc12
Activity [5]: inactive | Activity [7]: inactive | Activity [11]: inactive | Activity [12]: inactive | Activity [13]: Active | Activity [14]: Active | Activity [21]: Active | Activity [22]: inactive
